Tests used:
[1] = test system: immature female rats; assay: In vivo ovulation model: FSH-pretreated immature rats, oocytes counted in oviduct after 18 hours; set-up: species or system rat
Source text: The role of FSH in any ovulation induction regimen is for promoting follicular development and maturation, not ovulation induction.
All injections were subcutaneous. Results are expressed as mean plus or minus standard deviations. […] The effects of Compound 1, a known PDE inhibitor are shown.
Data represent average number of oocytes in oviducts of all rats in each group and frequency of ovulating rats. […] Results are expressed as mean plus or minus standard deviations.
Data represent average number of oocytes in oviducts of all rats in each group and frequency of ovulating rats. Results are expressed as mean plus or minus standard deviations.
(§1) Following FSH induced follicular maturation (2.16 IU/rat/injection; bid×2 days) Compound 2 was either injected subcutaneously (subcutis) or administered by oral gavage. Ovulation was determined 18 hours after Compound 2 administration by counting oocytes in oviduct. Data represent average number of oocytes in oviducts of all rats in each group and frequency of ovulating rats. Results are expressed as mean plus or minus standard deviations.
as §1, with “days) […] was either” for “days) Compound 2 was either”

[2] = test system: immature rats; assay: Ovulation and fertility in FSH/PMSG pretreated immature rats; type: in vivo, rat; details: single subcutaneous injection
Procedure: Follicular maturation was induced in immature rats with FSH (4.33 IU/rat/injection; bid×2 days) and Pregnant Mare's Serum Gonadotropin (PMSG) (1.5 IU/rat/injection; bid×2 days). […] FSH and PMSG induced rats were then treated with either Compound 2 (12 rats) or vehicle (12 rats) by subcutaneous administration. In one cohort of rats (6 rats per treatment), ovulation was determined 18 hours after Compound 2 or vehicle administration by counting oocytes in oviduct. To assess fertility, another cohort of rats (6 rats per treatment) were individually placed overnight in a cage together with a single adult male rat of proven fertility. The next day, male rats were removed and the females were caged together by group until the day of parturition. The number of live full-term pups observed at the time of parturition was recorded. […] Results for both ovulation and live pups are expressed as mean plus or minus standard deviations.

[3] = test system: rat ovarian granulosa cells; assay: Rat ovarian granulosa cell cAMP levels, alone or with gonadotropins in vitro (cAMP specific RIA); type: cell-based; details: 25 micromolar compound with subeffective (0.1 pM) gonadotropin, 48 hrs
Procedure: Ovaries were removed from immature 25 day old, hypophysectomized, diethylstilbesterol treated Sprague-Dawley rats. The ovaries were repeatedly punctured with 27 gauge needles to liberate granulosa cells from the follicles. Cells were washed and re-suspended in McCoys 5A media+0.1% BSA+2 μM androstenedione. Viable cells in number of 100,000 were loaded into 6-well tissue culture dishes in a 1.0 ml volume (with Compound 1 and Compound 2 at a concentration of 25 micromolar, either alone or in conjunction with a low, 0.1 pM dose of gonadotropin). Plates were incubated in a 37° C. incubator, 100% humidity, 5.0% CO2 for 48 hrs. Conditioned media were assayed in a cAMP specific RIA. Results are expressed as mean plus or minus standard deviations.

[4] = test system: immature female rats; assay: Follicle maturation in vivo: sub-optimal FSH with co-administered PDE inhibitor, ovulatory hCG, oocytes counted in oviduct; set-up: species or system rat
Procedure: Mature ovarian follicles generated in immature female rats by treatment with a sub-optimal dose of FSH (1.08 IU/rat/injection; bid×3 days) with and without co-administration of Compound 1 (0.1, 1, 10, and 50 mg/kg/injection: bid×3 days). […] The PDE inhibitors were given in conjunction with sub-optimal doses of FSH. All injections were subcutaneously administered. […] Results are expressed as mean plus or minus standard deviations. […] As also noted in FIG. 3, a PDE inhibitor (Compound 1) inhibited (rather than stimulated) both ovulation administered at 50 mg/kg.

[5] = subcutaneous injection alone, without hCG
[6] = single subcutaneous injection co-administered with sub-effective dose of hCG

SMILES | ovulation (oocytes in oviduct) ([1]; oral gavage, without hCG) | ovulation (oocytes in oviduct) [1, 5] | ovulation (oocytes in oviduct) ([2]; 18 hours) | number of live full-term pups at the time of parturition ([2]; mated overnight) | cAMP levels in conditioned media [3] | ovulation (oocytes in oviduct) [1, 6] | ovulation (oocytes in oviduct, frequency of ovulating rats) ([4]; 50 mg/kg/injection bid x 3 days s.c. with sub-optimal FSH (1.08 IU), ovulatory hCG 20 IU) | ability of a sub-optimal dose of FSH to prepare follicles to ovulate ([4]; increasing doses 0.1, 1, 10, 50 mg/kg/injection bid x 3 days s.c. with sub-optimal FSH)
COc1ccc(C(=O)Nc2c(Cl)cncc2Cl)cc1OC1CCCC1 [Compound 2, 3-(Cyclopentyloxy)-N-(3,5-dichloropyridin-4-yl)-4-methoxybenzamide] | induction of ovulation | induction of ovulation | induction of ovulation | increased number of live pups | significant increase |  |  | 
CCOc1cc2cc(CO)c(CO)c(-c3ccnc(-n4nc(-c5cccnc5)c5ccccc5c4=O)c3)c2cc1OCC.Cl [Compound 3, 2-(4-(6,7-Diethoxy-2,3-bis(hydroxymethyl)naphthalen-1-yl)pyridin-2-yl)-4-(3-pyridyl) pthalazin-1 (2H)-one hydrochloride] | induction of ovulation | induction of ovulation |  |  |  |  |  | 
Clc1nc2c(N3CCCC3)nc(N3CCNCC3)nc2nc1NCc1ccccc1 [Compound 4, 7-Benzylamino-6-chloro-2-piperazino-4-pyrrolidinopteridine] |  | little or no ovulation |  |  |  | induction of ovulation |  | 
COc1ccc([C@]2(C#N)CC[C@@H](C(=O)O)CC2)cc1OC1CCCC1 [Compound 1, Cis-4-cyano-4-(3-(cyclopentyloxy)-4-methoxyphenyl)cyclohexane-1-carboxylic acid] |  | induction of ovulation |  |  | significant increase | induction of ovulation | inhibited | failed to enhance
